Measured values: patent US6870044B2, “Inflammation inducible hybrid promoters, vectors comprising them and uses thereof” (Universite Pierre et Marie Curie, priority 2000, dated 2005)
Several values for one entry are separate records, joined by “and”; a condition that tells them apart may be missing. Equal values may be shown once.

What was measured:
[1] = system: construct (DR)2 21-(−247/+20) sPLA2-CAT; test: CAT reporter, hybrid promoter (DR1)2 21-(−247/+20) sPLA2-CAT in transfected chondrocytes; assay type: cell-based, rabbit; settings: for induction of the hybrid promoter, single inducer: PGJ2 10 μM, IL-1 10 ng/ml; for activation of the construct (DR1)2 21-(−247/+20)-CAT: 10^−4 M
Method: (§1) The hind and forelegs of 3-week-old prepubescent rabbits (Fauve de Bourgogne) were dissected and chopped up under sterile conditions. The cartilage is removed with a scalpel and then the chondrocytes are dissociated by means of proteolytic enzymes: hyaluronidase 0.05% for 15 minutes, trypsine 0.25% for 30 minutes and collagenase 0.2% for 90 minutes. Finally, the HAM's F12 medium is added for 60 minutes. The suspension of chondrocytes is cultured in dishes 6 cm in diameter (150,000 cells per dish) in the presence of HAM's F12 medium containing 10% fetal calf serum.
(§2) When these cells reach preconfluence (6 to 7 days), they are transfected with the various constructs using the calcium phosphate method.
(§3) The CAT activity is measured according to the double liquid phase technique according to Desbois et al. (1992). The β-galactosidase activity is measured with the aim of normalizing the variations in the transfection efficiency.
(§4) The fragment −247/+20 of the promoter of sPLA2 IIA (SEQ ID NO:5) was subcloned upstream of the CAT reporter vector for the plasmid PUC-SH-CAT. Upstream of this promoter, the different PPRE sequences cited above (SEQ ID NO: 1-4) were inserted.
(§5) The rabbit chondrocytes were then transfected with the CAT constructs containing the different arrangements of PPRE (DR1) placed upstream of the minimal promoter of sPLA2-IIA. 15 deoxy Δ^12-14 PGJ2 (10 μM) (activator of PPARγ) or Wy-14643 (200 μM) (activator of PPARα) were then added to the culture medium for 24 hours.
(§6) Rabbit chondrocytes were then transfected, either with the minimal promoter of sPLA2-IIA, or with the sequence (DR1)2 21 placed upstream of the latter (hybrid promoter). PGJ2 (10 μM) and/or IL-1 (10 ng/ml) are added to the culture medium.

[2] = system: minimal promoter (−247/+20) of sPLA2-IIA; test: CAT reporter, minimal promoter (−247/+20) of sPLA2-IIA in transfected chondrocytes; assay type: cell-based, rabbit; settings: for activation of the minimal promoter (−247/+20) of sPLA2-IIA: PGJ2 10 μM or Wy-14643 200 μM, 24 hours
Method: as §1, §2, §3, §4, §5, §6

[3] = system: PPARα/RXR heterodimer (Cos-1 extracts enriched with PPARα and RXR); test: Gel retardation, cooperative binding of PPARα/RXR to radiolabeled PPRE sequences; settings: PPARα/RXR 3/1, bands counted on a beta scintillation counter
Method: (§7) The Cos-1 cells (transformed monkey kidney fibroblasts) are transfected according to the abovementioned calcium phosphate technique using 20 μg of vectors for expression of PPARγ, PPARα or RXR. Non-transfected Cos-1 cells will serve as control. 48 hours after the transfection, the cells are incubated with a buffer containing KCl (0.45 M), Tris-HCl (20 mM, pH=7.5) and 10% glycerol. They are detached by scraping and then disrupted by cooling to −80° C. and thawing at 37° C. These cells are then centrifuged at 15,000 rpm, for 10 minutes at 4° C. The supernatant is then frozen at −80° C. and used for the gel retardation experiments.
(§8) The sequences DR1, (DR1)2 17, (DR1)2 21, and (DR1)2 31 are radiolabeled by means of the Klenow fragment of DNA polymerase using [α-^32P]dCTP. One hundred thousand cpm (0.4 ng) of the radiolabeled probes are incubated, for 30 minutes at 4° C., with increasing quantities of Cos-1 extracts enriched with PPAR and RXR (as indicated in the legend to the figures) and with a specific binding buffer (KCl 100 mM, Hepes 40 mM, pH 7.5, NP40 0.1%, ZnCl2 0.5 mM, PEG 8%). The mixture is then deposited on an acrylamide/bisacrylamide gel (5%, TBE 0.25×) and run for 2 hours 30 min at 200 volts. The gel is then dried and autoradiographed.
With the aim of studying the cooperativity of the binding of PPAR/RXR to these different sequences, gel retardation experiments placing increasing quantities of Cos-1 extracts enriched with PPAR and RXR (1 μl to 10 μl), followed by quantification of the radioactivity obtained, were carried out. […]
Similar experiments were carried out with PPARα. […] Gel retardation experiments using the four radiolabeled sequences and increasing quantities of Cos-1 extracts enriched with PPARα and RXR (rapport3/1) were carried out. The bands corresponding to the dimeric (D) or tetrameric (T) forms or the free probe (P) were cut out of the gel and then quantified by counting on a beta scintillation counter (FIG. 4). […]

[4] = system: PPARγ and RXR proteins prepared in Cos-1 cells; test: Gel retardation, cooperative binding of PPARγ/RXR to radiolabeled PPRE sequences; settings: for cooperativity ratio KdII/KdIV (R): PPARγ/RXR ratio 3:1, Cos-1 extracts 1 μl to 10 μl, Phosphorimager quantification
Method: as §7, §8
In order to verify the functional nature and the efficiency of the above PPRE regions, gel retardation experiments were carried out consisting in studying the binding between one of the four sequences above, radiolabeled beforehand, in the presence of increasing quantities (5 and 10 μl) of PPARγ and RXR proteins prepared in Cos-1 cells (PPARγ/RXR ratio=3:1).
With the aim of studying the cooperativity of the binding of PPAR/RXR to these different sequences, gel retardation experiments placing increasing quantities of Cos-1 extracts enriched with PPAR and RXR (1 μl to 10 μl), followed by quantification of the radioactivity obtained, were carried out. The formation of the first PPAR/RXR dimer is characterized by the dissociation constant KdII, that of the double dimer, or tetramer, is characterized by the dissociation constant KdIV. The KdII/KdIV ratio (R) is the reflection of the cooperativity of the binding if it is greater than 1.
The various dimeric and tetrameric complexes and the free probe were quantified by means of a Phosphorimager and represented in FIG. 3. The cooperativity ratios were calculated by means of the abovementioned formula. The sequences (DR1)2 17 and (DR1)2 31 bind as many dimeric and tetrameric forms. The cooperativity ratios are 9 and 12.6 respectively. […] The dimeric form forms only 20% of the total binding, whereas the tetrameric form forms 80% of the total binding. The cooperativity ratio is 34 +/−11.

[5] = form not soluble in water, dose 5 to 50 mg/kg, for example 30 mg/kg; cited from earlier work
[6] = system: RSV (Rous Sarcoma Virus) promoter (comparator); test: Transcriptional activity of the synthetic promoter compared with the RSV viral promoter; assay type: cell-based
Excerpt: Finally, the levels of transcriptional activities reached by a viral promoter, such as the RSV (Rous Sarcoma Virus) promoter, and that of the synthetic promoter were compared. The basal transcriptional activity of the synthetic promoter is low, it is less than 5% of the activity of the RSV viral promoter.

Question: What does the source list for Cc1cccc(Nc2cc(Cl)nc(SCC(=O)O)n2)c1C [Wy-14643, pirinixic acid]?
Answer: activation of transcription of the hybrid construct ([1]; Wy-14643 200 μM): 3 to 4 fold; activation of the minimal promoter (−247/+20) of sPLA2-IIA [2]: no effect; activation of the minimal promoter (−247/+20) of sPLA2-IIA ([2]; listed as Wy 14643): not activated

Question: Which results are given for “(DR1)2 17: two DR1s separated center to center by 17 base pairs (DNA CAAAACTAGGTCAAAGGTCAAAACTAGGTCAAAGGTCA; radiolabeled by Klenow fill-in with 32P-dCTP, further chemistry not given here)”?
Answer: cooperativity ratio (R) [3]: 7; cooperativity ratio KdII/KdIV (R) [4]: 9

Question: For “IL-1: pro-inflammatory cytokine interleukin-1”, which “induction of the hybrid promoter, single inducer” value [1] is on record?
Answer: 4 fold

Question: What about the “stimulation of the activity of the CAT reporter gene” value ([2]; 247 bp fragment upstream of first exon of human PLA2s IIA gene, rabbit chondrocytes in primary culture) of the same molecule?
Answer: 6 to 8 times

Question: And the “induction of the promoter of sPLA2-IIA” value ([2]; IL-1 10 ng/ml in culture medium)?
Answer: 6 fold

Question: Which “cooperativity ratio (R)” value [3] does the source give for “(DR1)2 21: two DR1s separated center to center by 21 base pairs (DNA CAAAACTAGGTCAAAGGTCATCAAAACTAGGTCAAAGGTCA; radiolabeled by Klenow fill-in with 32P-dCTP, further chemistry not given here)” here?
Answer: 11.2 and 11

Question: What about the “dimeric form, share of total binding” value ([4]; PPARγ/RXR) of the same molecule?
Answer: 20%

Question: What about the “tetrameric form, share of total binding” value ([4]; PPARγ/RXR) of the same molecule?
Answer: 80%

Question: And the “cooperativity ratio KdII/KdIV (R)” value [4]?
Answer: 34 +/−11

Question: For COc1ccc2c(c1)c(CC(=O)O)c(C)n2C(=O)c1ccc(Cl)cc1 [indomethacin], which “activation of the construct (DR1)2 21-(−247/+20)-CAT” value [1] is on record?
Answer: about fivefold

Question: Which “cooperativity ratio (R)” value [3] does the source give for “(DR1)2 31: two DR1s separated center to center by 31 base pairs (DNA CAAAACTAGGTCAAAGGTCATGTCTTTAGGCCCAAAACTAGGTCAAAGGTCA; radiolabeled by Klenow fill-in with 32P-dCTP, further chemistry not given here)” here?
Answer: 11.6 and 11

Question: What about the “cooperativity ratio KdII/KdIV (R)” value [4] of the same molecule?
Answer: 12.6

Question: With CN(CCOc1ccc(CC2SC(=O)NC2=O)cc1)c1ccccn1 (centres unmarked) [BRL 49653, rosiglitazone] as the molecule, how does the plasma concentration [5] read?
Answer: about 15 μg/ml

Question: With CCCCC/C=C/C=C1/C(=O)C=C[C@@H]1C/C=C\CCCC(=O)O [PGJ2, 15 deoxy Δ^12-14 PGJ2] as the molecule, how does the “induction of the hybrid promoter, single inducer” value [1] read?
Answer: 4 fold

Question: What about the “activation of the minimal promoter (−247/+20) of sPLA2-IIA” value [2] of the same molecule?
Answer: not activated

Question: And the “activation of the minimal promoter (−247/+20) of sPLA2-IIA” value ([2]; listed as prostaglandin J2)?
Answer: no effect

Question: With CC(C)Cc1ccc(C(C)C(=O)O)cc1 (centres unmarked) [ibuprofen] as the molecule, how does the “activation of the construct (DR1)2 21-(−247/+20)-CAT” value [1] read?
Answer: 17 fold

Question: With C[C@@H]1C[C@H]2[C@@H]3CCC4=CC(=O)C=C[C@]4(C)[C@@]3(F)[C@@H](O)C[C@]2(C)[C@@]1(O)C(=O)CO [Dexamethasone, dexamethasone] as the molecule, how does the “activation of transcription of the synthetic promoter” value ([1]; dexamethasone alone, concentration not given) read?
Answer: about 6 fold

B1: synthetic promoter: PPAR response element (DR1)2 21 linked to fragment −247/+20 of the PLA2s IIA gene (nucleic acid)
DNA: GTACCAATTCGACAAAACTAGGTCAAAGGTCATCAAAACTAGGTCAAAGGTCAAATTCGAACGCGGCAAAACTGCCTGAAATGTGTTTTGGCATCAGCTACTGACACGTAAGGTTTCCCAATCCTCAACTCTGTCCTGCCAGCTGATGAGGGGAAGGAAAGGGATTACCTAGGGGTATGGGCGACCAATCCTGAGTCCACCAACTGACCACGCCCATCCCCAGCCTTGTGCCTCACCTACCCCCAACCTCCCAGAGGGAGCAGCTATTTAAGGGGAGCAGGAGTGCAGAACAAACAAGACGGCCTGGGGATACAACTCTGGAGTCCTCTGAG
modifications: PPRE/PLA2s hybrid promoter
notes: PPAR response element (DR1)2 21 linked to fragment −247/+20 of the PLA2s IIA gene
Question: For B1, which “transcriptional activity relative to RSV after induction” value ([6]; after induction with the different effectors (results not shown)) is on record?
Answer: 40%

Question: And the “basal transcriptional activity, relative to the RSV viral promoter” value ([6]; not induced)?
Answer: less than 5%
